We go through three molecules from publication PMC8058163 (Clinical pharmacology and therapeutics, 2020).

Each structure is given as a SMILES string. “And” between values parts separate entries of the source, which are not always exact repeats. Identical values can stand only once. Like-named read-outs stand apart in the source and are kept apart here.

The target of data set [1] is T1, OCT1 (Homo sapiens, UniProt O15245).
T1 sequence (O15245 1-554): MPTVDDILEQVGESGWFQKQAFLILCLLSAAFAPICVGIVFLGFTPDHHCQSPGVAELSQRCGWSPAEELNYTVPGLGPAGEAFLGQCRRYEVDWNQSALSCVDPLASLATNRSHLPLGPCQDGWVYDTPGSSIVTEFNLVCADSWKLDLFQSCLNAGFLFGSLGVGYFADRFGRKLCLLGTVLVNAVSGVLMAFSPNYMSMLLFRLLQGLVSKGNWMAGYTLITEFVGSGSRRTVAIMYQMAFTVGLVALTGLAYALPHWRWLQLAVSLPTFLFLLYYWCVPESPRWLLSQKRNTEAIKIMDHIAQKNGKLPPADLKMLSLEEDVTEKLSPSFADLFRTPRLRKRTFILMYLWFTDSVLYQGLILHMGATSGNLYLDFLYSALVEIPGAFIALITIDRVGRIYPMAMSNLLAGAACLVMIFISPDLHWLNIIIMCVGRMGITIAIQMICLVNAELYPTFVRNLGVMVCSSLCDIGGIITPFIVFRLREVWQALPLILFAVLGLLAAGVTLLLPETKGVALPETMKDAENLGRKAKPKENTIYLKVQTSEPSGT
Kind of data set: Transporter inhibition assay, OCT1.

The target of data set [2] is MATE2-K (Homo sapiens, UniProt Q86VL8). Kind of data set: Transporter inhibition assay, MATE2-K. Conditions: isolated alkaloids, mean [95% CI], three technical replicates. In kind it is cell-based.
Chain of MATE2-K (Q86VL8 1-566 isoform Q86VL8-3): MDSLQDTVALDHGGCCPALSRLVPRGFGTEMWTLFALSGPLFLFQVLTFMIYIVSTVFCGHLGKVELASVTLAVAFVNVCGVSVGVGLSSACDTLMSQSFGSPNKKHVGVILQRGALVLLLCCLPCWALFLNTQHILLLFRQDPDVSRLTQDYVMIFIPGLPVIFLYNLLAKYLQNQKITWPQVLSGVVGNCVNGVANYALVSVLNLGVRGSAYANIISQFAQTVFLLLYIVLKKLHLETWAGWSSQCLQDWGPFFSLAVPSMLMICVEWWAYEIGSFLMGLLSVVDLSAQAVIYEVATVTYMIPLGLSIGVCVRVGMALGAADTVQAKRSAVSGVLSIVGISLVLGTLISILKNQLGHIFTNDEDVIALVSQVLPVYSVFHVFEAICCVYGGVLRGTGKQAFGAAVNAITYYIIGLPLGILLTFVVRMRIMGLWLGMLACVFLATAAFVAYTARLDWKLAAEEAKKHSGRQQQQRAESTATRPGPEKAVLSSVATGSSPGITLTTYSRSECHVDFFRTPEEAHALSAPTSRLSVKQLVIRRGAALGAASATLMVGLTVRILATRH
Data set [3] in a line: Estimated berberine concentrations and parameters for the basic models. The following applies: 29.8 mg berberine in a 1-gram capsule / 250 mL.
Data set [4] deals with all transporters tested. Kind of data set: Transporter inhibition assays, summary over the panel. The following applies: against all transporters tested.
The target in data set [5] is T2, OAT1 (Homo sapiens, UniProt Q4U2R8).
T2 sequence (Q4U2R8 1-563): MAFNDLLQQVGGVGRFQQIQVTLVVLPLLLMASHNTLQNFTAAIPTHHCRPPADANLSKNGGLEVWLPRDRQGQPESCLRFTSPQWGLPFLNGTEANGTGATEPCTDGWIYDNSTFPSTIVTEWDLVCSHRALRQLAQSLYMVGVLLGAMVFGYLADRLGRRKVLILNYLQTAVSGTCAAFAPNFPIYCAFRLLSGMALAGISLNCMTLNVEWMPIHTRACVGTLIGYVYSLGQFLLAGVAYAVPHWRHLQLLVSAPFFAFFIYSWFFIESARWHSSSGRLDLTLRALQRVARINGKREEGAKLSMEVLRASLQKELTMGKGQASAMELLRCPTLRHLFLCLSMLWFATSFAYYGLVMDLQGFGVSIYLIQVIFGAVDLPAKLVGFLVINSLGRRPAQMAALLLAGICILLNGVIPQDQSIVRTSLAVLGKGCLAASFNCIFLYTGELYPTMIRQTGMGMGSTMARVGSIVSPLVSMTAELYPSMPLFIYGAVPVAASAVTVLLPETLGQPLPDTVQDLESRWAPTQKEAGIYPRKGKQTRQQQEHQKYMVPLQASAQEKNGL
Kind of data set: Transporter inhibition assay, OAT1. The class given is cell-based. The following applies: cell line (HEK293 or MDCKII) stably expressing OAT1.

What is called IC50 is the midpoint of a concentration-inhibition curve. A lower IC50 goes with higher potency. In general, inhibition refers to the relative decrease from the control value, in per cent. The low end stands for a weak effect, the high end for a strong effect.

Turning to `COc1ccc2cc3[n+](cc2c1OC)CCc1cc2c(cc1-3)OCO2` [Berberine, berberine chloride], the IC50 in data set [1] was 19 µM; in data set [2] it was < 1 µM and 0.77 µM. The “estimated concentration in the gut (Igut)” value in data set [3] was ~ 350 μM.
In the case of `CN1CCc2cc3c(cc2C1O)OCO3` (stereo not drawn) [Hydrastinine, hydrastinine chloride monohydrate], the IC50 in data set [4] is not below 80 µM. In addition, the inhibition at 100 μM in data set [5] was less than 20%.
`COc1ccc2c(c1OC)C(=O)O[C@@H]2[C@H]1c2cc3c(cc2CCN1C)OCO3` [(−)-β-Hydrastine, (1R,9S)-(−)-β-Hydrastine] registered an IC50 in data set [1] (OCT1, isolated alkaloids, mean [95% CI], three technical replicates) of 6.6 µM.
